Experimental data reported in patent publication EP1005445B1, “N-ALKANOYLPHENYLALANINE DERIVATIVES” (F. HOFFMANN-LA ROCHE AG, priority 1997, dated 1999).
Where “and” joins values, the source holds several entries; their conditions need not be identical. Identical values can stand only once.

How the values were obtained:
VLA-4 (a4b1 integrin) [1] = biological target: T1, VLA-4 (a4b1 integrin) (Homo sapiens, UniProt P05556+P13612); assay: Ramos (VLA-4) / VCAM-1 Cell-Based Screening Assay (cell adhesion)
T1 construct: followed by 10 µl of Ramos cell-derived VLA-4; endogenous in cells; host or cells: Ramos cells (VLA-4 preparation derived from the cells)
T1 sequence (P13612 34-1032): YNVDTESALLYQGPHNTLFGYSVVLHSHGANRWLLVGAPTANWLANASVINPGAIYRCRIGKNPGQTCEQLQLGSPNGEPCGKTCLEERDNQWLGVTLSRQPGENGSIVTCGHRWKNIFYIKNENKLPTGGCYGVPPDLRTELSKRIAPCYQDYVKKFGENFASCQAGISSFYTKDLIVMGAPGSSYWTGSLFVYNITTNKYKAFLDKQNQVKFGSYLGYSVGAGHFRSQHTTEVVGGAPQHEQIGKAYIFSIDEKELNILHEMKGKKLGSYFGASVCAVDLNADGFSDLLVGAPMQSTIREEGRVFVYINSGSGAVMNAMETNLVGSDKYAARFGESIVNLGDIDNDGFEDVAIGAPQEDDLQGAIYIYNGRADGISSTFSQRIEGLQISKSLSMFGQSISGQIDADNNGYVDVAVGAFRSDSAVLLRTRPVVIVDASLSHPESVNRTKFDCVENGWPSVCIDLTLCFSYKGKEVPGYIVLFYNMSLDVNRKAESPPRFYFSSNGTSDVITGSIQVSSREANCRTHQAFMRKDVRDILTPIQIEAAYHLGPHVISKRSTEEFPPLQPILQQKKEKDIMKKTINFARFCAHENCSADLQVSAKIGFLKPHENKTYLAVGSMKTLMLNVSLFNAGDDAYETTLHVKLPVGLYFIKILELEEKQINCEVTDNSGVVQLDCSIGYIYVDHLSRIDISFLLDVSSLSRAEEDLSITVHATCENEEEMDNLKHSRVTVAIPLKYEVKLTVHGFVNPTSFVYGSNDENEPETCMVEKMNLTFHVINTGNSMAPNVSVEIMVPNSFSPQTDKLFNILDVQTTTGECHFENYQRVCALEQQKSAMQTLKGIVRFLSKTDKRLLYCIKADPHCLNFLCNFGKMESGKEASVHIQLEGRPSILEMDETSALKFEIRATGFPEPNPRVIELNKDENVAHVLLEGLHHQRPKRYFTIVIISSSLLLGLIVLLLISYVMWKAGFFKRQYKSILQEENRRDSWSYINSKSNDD
T1 sequence (P05556 21-798): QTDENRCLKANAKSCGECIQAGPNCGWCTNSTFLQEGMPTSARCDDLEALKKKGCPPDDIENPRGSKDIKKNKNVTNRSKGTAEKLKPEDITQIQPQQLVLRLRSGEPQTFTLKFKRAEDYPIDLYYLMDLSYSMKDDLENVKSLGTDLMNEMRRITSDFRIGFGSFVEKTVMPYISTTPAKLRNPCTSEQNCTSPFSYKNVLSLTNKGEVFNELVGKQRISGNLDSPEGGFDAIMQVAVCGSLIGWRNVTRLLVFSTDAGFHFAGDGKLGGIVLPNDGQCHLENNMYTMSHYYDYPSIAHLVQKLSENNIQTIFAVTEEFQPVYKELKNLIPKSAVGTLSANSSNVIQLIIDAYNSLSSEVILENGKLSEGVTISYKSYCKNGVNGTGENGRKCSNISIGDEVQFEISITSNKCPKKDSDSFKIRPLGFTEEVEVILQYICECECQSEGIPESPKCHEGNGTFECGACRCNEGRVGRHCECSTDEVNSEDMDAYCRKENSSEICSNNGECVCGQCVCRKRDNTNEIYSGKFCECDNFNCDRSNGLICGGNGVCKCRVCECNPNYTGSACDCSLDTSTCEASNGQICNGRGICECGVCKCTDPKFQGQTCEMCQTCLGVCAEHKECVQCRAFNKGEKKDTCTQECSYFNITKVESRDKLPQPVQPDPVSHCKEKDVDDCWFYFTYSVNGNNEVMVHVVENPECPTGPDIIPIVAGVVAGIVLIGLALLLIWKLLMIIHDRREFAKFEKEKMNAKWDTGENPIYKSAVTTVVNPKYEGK
From the text: Ramos (VLA-4) / VCAM-1 Cell-Based Screening Assay Protocol
Calcein-AM was purchased from Molecular Probes Inc.
VLA-4 (a4b1 integrin) antagonist activity, defined as ability to compete with cell-surface VLA-4 for binding to immobilized VCAM-1, was quantitated using a Ramos-VCAM-1 cell adhesion assay. Ramos cells bearing cell-surface VLA-4, were labeled with a fluorescent dye (Calcein-AM) and allowed to bind VCAM-1 in the presence or absence of test compounds.
Initially, this entailed coating 96 well plates (Nunc Maxisorp) with recombinant human VCAM-1 (100 ng in 100 µl PBS), sealing each plate and allowing the plates to stand at 4°C for Å18 hr. The VCAM-coated plates were subsequently washed twice with 0.05% Tween-20 in PBS, and then blocked for 1hr (room temperature) with 200 µl of Blocking Buffer (1% BSA/0.02% thimerosal) to reduce non-specific binding. Following the incubation with Blocking Buffer, plates were inverted, blotted and the remaining buffer aspirated. Each plate was then washed with 300 µl PBS, inverted and the remaining PBS aspirated.
Test compounds were dissolved in 100% DMSO and then diluted 1:25 in VCAM Cell Adhesion Assay Buffer (4 mM CaCl2, 4 mM MgCl2 in 50 mM TRIS-HCl, pH 7.5) (final DMSO = 4%). […] 100 µl/well of each dilution was added to the VCAM-coated plates, followed by 100 µl of Ramos cells (200,000 cells/well in 1% BSA/PBS). […] Plates were inverted to remove non-adherent cells, blotted and 300 µl/well PBS added. Plates were again inverted, blotted and the remaining buffer gently aspirated. 100 µl Lysis Buffer (0.1% SDS in 50 mM TRIS-HCl, pH 8.5) was added to each well and agitated for 2 min on a rotary shaking platform.

VLA-4 (a4b1 integrin) [2] = biological target: T1, VLA-4 (a4b1 integrin); assay: VLA-4 / VCAM-1 Screening Assay (solid-phase, dual antibody ELISA); conditions: Ramos cell-derived VLA-4 binding to immobilized recombinant human VCAM-1, 1 mM MnCl2, 2 hr at 37 °C
Experimental: VLA-4 / VCAM-1 Screening Assay
VLA-4 antagonist activity, defined as ability to compete for binding to immobilized VCAM-1, was quantitated using a solid-phase, dual antibody ELISA. VLA-4 (a4b1 integrin) bound to VCAM-1 is detected by a complex of anti-integrin b1 antibody: HRP-conjugated anti-mouse IgG: chromogenic substrate (K-Blue). Initially, this entailed coating 96 well plates (Nunc Maxisorp) with recombinant human VCAM-1 (0.4 µg in 100 µl PBS), sealing each plate and then allowing the plates to stand at 4°C for Å18 hr. […] On the day of assay, all plates are washed twice with VCAM Assay Buffer (200 µl/well of 50 mM Tris-HCl, 100 mM NaCl, 1 mM MnCl2, 0.05% Tween 20; pH 7.4). Test compounds are dissolved in 100% DMSO and then diluted 1:20 in VCAM Assay Buffer supplemented with 1mg/mL BSA (i.e., final DMSO = 5%). […] 100 µl per well of each dilution is added to the VCAM-coated plates, followed by 10 µl of Ramos cell-derived VLA-4. These plates are sequentially mixed on a platform shaker for 1 min, incubated for 2 hr at 37 °C, and then washed four times with 200 µl/well VCAM Assay Buffer. 100 µl of mouse anti-human integrin b1 antibody is added to each well (0.6 µg/mL in VCAM Assay Buffer + 1mg/mL BSA) and allowed to incubate for 1 hr at 37°C. At the conclusion of this incubation period, all plates are washed four times with VCAM Assay Buffer (200 µl/well). A corresponding second antibody, HRP-conjugated goat anti-mouse IgG (100 µl per well @ 1:800 dilution in VCAM Assay Buffer + 1mg/mL BSA), is then added to each well, followed by a 1 hr incubation at room temperature and concluded by three washes (200µl/well) with VCAM Assay Buffer. Color development is initiated by addition of 100 µl K-Blue per well (15 min incubation, room temp) and terminated by addition of 100 µl Red Stop Buffer per well. […] Results are calculated as % inhibition of total binding (i.e., VLA-4 + VCAM-1 in the absence of test compound).

[3] = Calcein-AM labeled Ramos cells adhering to immobilized recombinant human VCAM-1, 45 min at room temperature, read-out: Ramos IC50

Molecule	IC50 (VLA-4 (a4b1 integrin) [1]; [3])	IC50 (VLA-4 (a4b1 integrin) [2]; read-out: ELISA IC50)	further results
4-[(2S,4R)-3-Acetyl-2-phenyl-4-(3-pyridinylmethyl)-5-oxo-1-imidazolinyl]-N-[(2-chloro-6-methylphenyl)carbonyl]-L-phenylalanine and 4-[(2R,4R)-3-acetyl-2-phenyl-4-(3-pyridinylmethyl)-5-oxo-1-imidazolinyl]-N-[(2-chloro-6-methylphenyl)carbonyl]-L-phenylalanine [Example 171]	13.5 nM	–	–
C[S+]([O-])c1ccccc1C(=O)N[C@@H](Cc1ccc(NC(=O)c2c(Cl)cccc2Cl)cc1)C(=O)O (single isomer, unassigned) [Example 30, 4-[[(2,6-dichlorophenyl)carbonyl]amino]-N-[[2-(methylsulfinyl)phenyl]carbonyl]-L-phenylalanine]	–	2 nM and 1.6 nM	–
CC(=O)N1C(Cc2ccccc2)C(=O)N(c2ccc(C[C@H](NC(=O)c3c(C)cccc3Cl)C(=O)O)cc2)C1c1ccccc1 (single isomer, unassigned) [Example 170]	33.5 nM	–	–
Cc1cccc(Cl)c1C(=O)N[C@@H](Cc1ccc(NC(=O)c2c(Cl)cccc2Cl)cc1)C(=O)O [Example 13]	15 nM	0.33 nM	–
O=C(Nc1ccc(C[C@H](NC(=O)c2cccc3ccccc23)C(=O)O)cc1)c1c(Cl)cccc1Cl [Example 15]	2600 nM	–	–
O=C(Nc1ccc(C[C@H](NC(=O)c2c(F)cccc2C(F)(F)F)C(=O)O)cc1)c1c(Cl)cccc1Cl [Example 16]	85 nM	–	–
CC(C)c1cccc(C(C)C)c1C(=O)N[C@@H](Cc1ccc(NC(=O)c2c(Cl)cccc2Cl)cc1)C(=O)O [Example 18]	–	11 nM	–
COc1ccc(C(=O)N[C@@H](Cc2ccc(NC(=O)c3c(Cl)cccc3Cl)cc2)C(=O)O)c(Cl)c1 [Example 19]	351 nM	–	–
O=C(N[C@@H](Cc1ccc(NC(=O)c2c(Cl)cccc2Cl)cc1)C(=O)O)c1cccc(Cl)c1Cl [Example 20]	1630 nM	2.2 nM	–
Cc1cccc(C(=O)N[C@@H](Cc2ccc(NC(=O)c3c(Cl)cccc3Cl)cc2)C(=O)O)c1Cl [Example 21]	1270 nM	1.4 nM	–
O=C(N[C@@H](Cc1ccc(NC(=O)c2c(Cl)cccc2Cl)cc1)C(=O)O)c1ccc(Br)cc1Cl [Example 22]	1320 nM	1.6 nM	–
Cc1cccc(Cl)c1C(=O)N[C@@H](Cc1ccc(NC(=O)c2c(C)ccnc2C)cc1)C(=O)O [Example 107]	–	–	IC50 (VLA-4 (a4b1 integrin) [1]): 20 nM; IC50 (VLA-4 (a4b1 integrin) [2]; ELISA IC50 nM): 0.79 nM
Cc1cccc(Cl)c1C(=O)N[C@@H](Cc1ccc(NC(=O)c2c(F)cccc2F)cc1)C(=O)O [Example 114, N-[1-(2-Chloro-6-methylphenyl)carbonyl]-4-[[(2,6-difluorophenyl)carbonyl]amino]-L-phenylalanine]	–	1.14 nM	–
Cc1cccc(Cl)c1C(=O)N[C@@H](Cc1ccc(NC(=O)c2c(F)c(F)c(F)c(F)c2F)cc1)C(=O)O [Example 115, N-[1-(2-Chloro-6-methylphenyl)carbonyl]-4-[[(2,3,4,5,6-pentafluorophenyl)carbonyl]amino]-L-phenylalanine]	678 nM	4.5 nM	–
Nc1ccc(C(=O)N[C@@H](Cc2ccc(NC(=O)c3c(Cl)cccc3Cl)cc2)C(=O)O)c(Cl)c1 [Example 124, N-[(4-amino-2-chlorophenyl)carbonyl]-4-[[(2,6-dichlorophenyl)carbonyl]amino]-L-phenylalanine]	985 nM	0.63 nM	–
Cc1cccc(Cl)c1C(=O)N[C@@H](Cc1ccc(N2C(=O)c3ccc(C#N)cc3C2=O)cc1)C(=O)O [Example 125]	–	–	IC50 (VLA-4 (a4b1 integrin) [2]; read-out: ELISA IC50 nM): 1.7 nM
Cc1cc(C(F)(F)F)c(C(=O)Nc2ccc(C[C@H](NC(=O)c3c(C)cccc3Cl)C(=O)O)cc2)c(C)n1 [Example 150]	–	–	IC50 (VLA-4 (a4b1 integrin) [1]): 47 nM
Cc1cccc(Cl)c1C(=O)Nc1ccc(C[C@H](NC(=O)c2c(Cl)cccc2Cl)C(=O)O)cc1 [Example 169, N-[(2,6-Dichlorophenyl)carbonyl]-4-[[(2-chloro-6-methylphenyl)carbonyl]amino]-L-phenylalanine]	30 nM	–	–

Second part, led by results:

IC50 (VLA-4 (a4b1 integrin) [1]; [3])	IC50 (VLA-4 (a4b1 integrin) [2]; read-out: ELISA IC50)	Molecule	further results
–	0.25 nM	COc1ccc(Br)c(C(=O)N[C@@H](Cc2ccc(NC(=O)c3c(Cl)cccc3Cl)cc2)C(=O)O)c1 [Example 24]	–
–	8.6 nM	COc1ccccc1C(=O)N[C@@H](Cc1ccc(NC(=O)c2c(Cl)cccc2Cl)cc1)C(=O)O [Example 26]	–
–	1.9 nM	CNc1ccccc1C(=O)N[C@@H](Cc1ccc(NC(=O)c2c(Cl)cccc2Cl)cc1)C(=O)O [Example 27]	–
–	3.3 nM	CS(=O)(=O)c1ccccc1C(=O)N[C@@H](Cc1ccc(NC(=O)c2c(Cl)cccc2Cl)cc1)C(=O)O [Example 28]	–
23 nM	1.2 nM	Cc1cccc(C(C)C)c1C(=O)N[C@@H](Cc1ccc(NC(=O)c2c(Cl)cccc2Cl)cc1)C(=O)O [Example 90]	–
9.5 nM	0.25 nM	CS(=O)(=O)c1ccc(C(=O)N[C@@H](Cc2ccc(NC(=O)c3c(Cl)cccc3Cl)cc2)C(=O)O)c(Cl)c1 [Example 94]	–
33 nM	0.46 nM	O=C(N[C@@H](Cc1ccc(NC(=O)c2c(Cl)cccc2Cl)cc1)C(=O)O)c1ccc(O)cc1Cl [Example 95]	–
–	0.47 nM	COC(=O)[C@H](Cc1ccc(N2C(=O)[C@@H](C(C)C)N(C)C2=O)cc1)NC(=O)c1c(C)cccc1Cl [Example 96, N-(2-Chloro-6-methylbenzoyl)-[(R)-2,5-dioxo-3-methyl-4-(1-methylethyl)-1-imidazolininyl]-L-phenylalanine methyl ester]	–
–	41 nM	CC(=O)N1[C@H](CC(C)C)C(=O)N(c2ccc(C[C@H](NC(=O)c3c(C)cccc3Cl)C(=O)O)cc2)[C@@H]1C(C)(C)C [Example 102]	–
114 nM	–	Cc1cc(C(F)(F)F)c(C(=O)N[C@@H](Cc2ccc(NC(=O)c3c(Cl)cccc3Cl)cc2)C(=O)O)c(C)n1 [Example 156]	–
